Publication PMC3470872 (Biochemical pharmacology, 2012)
Several values for one entry are separate records, joined by “and”; a condition that tells them apart may be missing. Equal values may be shown once.

Assays:
CES1 [1] = target: T1, CES1 (Homo sapiens, UniProt P23141); test: Inactivation kinetics of recombinant CES1, pNPV hydrolysis progress curves; type: biochemical; conditions: comparison with oxon values of ref 24
T1 sequence (P23141 18-567): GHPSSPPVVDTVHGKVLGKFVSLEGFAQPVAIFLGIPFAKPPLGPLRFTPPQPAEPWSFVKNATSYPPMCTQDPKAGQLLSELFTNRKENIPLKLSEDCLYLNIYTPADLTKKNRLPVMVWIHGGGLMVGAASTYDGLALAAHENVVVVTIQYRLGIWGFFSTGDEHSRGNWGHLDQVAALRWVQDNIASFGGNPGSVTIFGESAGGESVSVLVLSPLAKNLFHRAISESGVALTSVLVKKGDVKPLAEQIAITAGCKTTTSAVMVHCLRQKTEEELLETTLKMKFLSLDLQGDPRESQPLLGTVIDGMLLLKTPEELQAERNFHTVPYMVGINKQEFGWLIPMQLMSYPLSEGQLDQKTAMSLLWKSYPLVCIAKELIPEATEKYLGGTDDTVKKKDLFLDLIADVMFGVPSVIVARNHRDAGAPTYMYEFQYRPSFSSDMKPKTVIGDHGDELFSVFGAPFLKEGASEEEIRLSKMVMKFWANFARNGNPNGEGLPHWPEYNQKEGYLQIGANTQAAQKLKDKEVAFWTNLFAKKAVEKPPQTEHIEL

CES1 [2] = target: T1, CES1; test: Esterase activity of HepG2 cell lysate in presence of S-3030; type: biochemical
FAAH = conditions: rat brain membranes; cited from earlier work
CES1 [3] = target: T1, CES1; type: biochemical
HepG2 cells = test: Inhibition and recovery of esterase activity in intact HepG2 cells; type: cell-based
MAGL = conditions: mouse brain membrane proteome; cited from earlier work
recombinant human CES2 = target: T2, recombinant human CES2 (Homo sapiens, UniProt O00748); test: Inactivation kinetics of recombinant CES2, pNPV hydrolysis progress curves; type: biochemical; conditions: CES1 and MAGL versus CES2
T2 sequence (O00748 27-559): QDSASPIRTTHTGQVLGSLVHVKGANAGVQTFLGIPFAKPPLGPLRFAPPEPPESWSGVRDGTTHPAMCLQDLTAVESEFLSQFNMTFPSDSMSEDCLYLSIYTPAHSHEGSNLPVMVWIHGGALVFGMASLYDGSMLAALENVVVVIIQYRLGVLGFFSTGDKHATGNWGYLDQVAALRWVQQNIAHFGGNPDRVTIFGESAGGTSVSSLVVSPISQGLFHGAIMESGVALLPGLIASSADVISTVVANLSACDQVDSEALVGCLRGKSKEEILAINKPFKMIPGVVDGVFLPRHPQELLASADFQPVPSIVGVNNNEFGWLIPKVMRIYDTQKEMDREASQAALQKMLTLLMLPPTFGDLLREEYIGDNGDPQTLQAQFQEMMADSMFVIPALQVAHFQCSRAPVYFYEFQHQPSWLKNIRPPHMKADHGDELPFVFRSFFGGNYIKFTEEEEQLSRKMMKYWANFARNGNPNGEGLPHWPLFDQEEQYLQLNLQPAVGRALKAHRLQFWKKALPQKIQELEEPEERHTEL

rat ortholog of CES1 = conditions: cited from earlier work

**Q.** For chlorpyrifos oxon, which “more reactive toward CES1 than JZL184” value (CES1 [1]) is on record?
**A.** The value was 500 x.

**Q.** For O=C1C(=O)c2sccc2-c2ccsc21 [S-3030, Thieno[3,2-e][1]benzothiophene-4,5-dione], which “esterase activity sensitive to S-3030-mediated inhibition” value (CES1 [2]; activity recovered by 48 hr following URB597 treatment (data not shown)) is on record?
**A.** The value was 74%.

**Q.** And the “share of esterase activity accounted for by CES1 (S-3030 sensitive)” value (CES1 [2]; untreated HepG2 cell lysate, 10 μM S-3030, pNPV substrate)?
**A.** The value was 71.5±2.1%.

**Q.** Which IC50 (FAAH) does the source give for NC(=O)c1cccc(-c2cccc(OC(=O)NC3CCCCC3)c2)c1 [URB597] here?
**A.** The IC50 was 4.6 nM.

**Q.** And the “t1/2 (half life of reactivation)” value (CES1 [3])?
**A.** The value was 11 h and 11 ± 4^a h.

**Q.** What about the “esterase activity, % of the control activity” value (HepG2 cells; 10 μM, 30 min treatment, recovery over 48 hr) of the same compound?
**A.** The value was 50%.

**Q.** What about the inhibition at 10 µM (HepG2 cells; Homo sapiens, HepG2, 0.5 h, read-out: inhibition of esterase activity) of the same compound?
**A.** Its inhibition at 10 µM is ≥ 90%.

**Q.** Which IC50 (MAGL) does the source give for O=C(Oc1ccc([N+](=O)[O-])cc1)N1CCC(C(O)(c2ccc3c(c2)OCO3)c2ccc3c(c2)OCO3)CC1 [JZL184] here?
**A.** Its IC50 is […].

**Q.** And the “bimolecular rate constants for CES1 and MAGL greater than for CES2” value (recombinant human CES2)?
**A.** Its value is 17-38 fold.

**Q.** What about the “reactivation rate slower than CES1 inhibited by URB597” value (CES1 [3]) of the same compound?
**A.** Its value is 4.5 x.

**Q.** And the “t1/2 (half life of reactivation)” value (CES1 [3])?
**A.** The value was 49 ± 15 h and 49 h and 49 ± 15^b h.

**Q.** And the “esterase activity remained depressed” value (HepG2 cells; 10 μM, 30 min treatment, over 48 hr after treatment)?
**A.** The value was ~ 90%.

**Q.** And the “inhibition of esterase activity” value (HepG2 cells; 10 μM, 30 min treatment, time 0, pNPV substrate)?
**A.** Its value is ≥ 90%.

**Q.** With CNC(=O)Oc1cccc2ccccc12 [carbaryl] as the compound, how does the “ki (bimolecular rate constant)” value (rat ortholog of CES1) read?
**A.** The value was 856 M⁻¹ s⁻¹.
